# Structures can show the parent of a compound that is named as a salt.
# Columns and labels:
# LS174T cells = assay: MTT cell cytotoxicity assay, LS174T; type: cell-based, human; conditions: for IC50: Homo sapiens, LS174T, MTT, 72 hours, mean ± SD; for Selectivity index (SI) LS174T: IC50 in normal cells (CCD841 CoN) / IC50 in LS174T
# Procedure: (§1) Three human colorectal cancer cell lines: HT29 cells (colorectal adenocarcinoma with p53 and APC mutation), LS174T cells (colorectal adenocarcinoma with KRAS mutation) and HCT116 cells (colorectal carcinoma with KRAS mutation) as well as normal colon, CCD841 CoN cells were obtained from American Type Cell Culture (Manassas, VA, USA). All cell lines were cultured in an incubator under the condition of 37°C temperature, humidified 5% CO2 air atmosphere. Cells were maintained in Dulbecco’s Modified Eagle Medium (DMEM) (Corning, NY, USA), supplemented with 10% Fetal Bovine Serum (FBS) (Sigma-Aldrich, St Louis, MO, USA), 25mM HEPES (Sangon Biotech, Shanghai, China) and 1% Penicillin/Streptomycin (Merck, Germany).
# (§2) HCT116 wells were seeded at 7,500 cells/well while other cells were seeded at 30,000 cells/well in 96 well plates and allowed for 24 hours incubation. Cells were then treated with anthraquinone compounds at series of 2-fold dilution concentrations (50μM, 25μM, 12.5μM, 6.25μM, 3.12μM, 1.56μM, 0.78μM, 0.39μM) for 72 hours. 5-fluorouracil and DOX were used as positive controls in the treatment. Cell cytotoxicity was measured using the MTT Cell Count kit according to the manufacturer’s protocol. Assay was performed in triplicates and repeated in three individual experiments. The absorbance (A) was measured with microplate reader at 570nm wavelength and normalized to control. The half-maximal inhibitory concentration (IC50) value was determined using GraphPad Prism 8 software (GraphPad Software, Inc., CA, USA). Cell viability was calculated as follows: […]
# HCT116 cells = assay: MTT cell cytotoxicity assay, HCT116; type: cell-based, human; conditions: for IC50: MTT, 72 hours, mean ± SD; for Selectivity index (SI) HCT116: IC50 in normal cells (CCD841 CoN) / IC50 in HCT116
# Procedure: as §1, §2
# CCD841 CoN cells = assay: MTT cell cytotoxicity assay, normal colon cells; type: cell-based; conditions: Homo sapiens, CCD-841CoN, 72 hours
# Procedure: as §1, §2
# HT29 cells = assay: MTT cell cytotoxicity assay, HT29; type: cell-based, human; conditions: for IC50: Homo sapiens, HT-29, MTT, 72 hours, mean ± SD; for Selectivity index (SI) HT29: IC50 in normal cells (CCD841 CoN) / IC50 in HT29
# Procedure: as §1, §2
# [1] = test system: MCF-7 cells (breast cancer); conditions: cited from earlier work
# [2] = test system: HCT116 cells (colorectal cancer); conditions: cited from earlier work
# [3] = test system: HepG2 cells (hepatocellular carcinoma); conditions: cited from earlier work
# C. lipolytica = test system: C. lipolytica; set-up: method as in PMID 21214480; conditions: cited from earlier work
# [4] = test system: oxacillin-resistant Staphylococcus aureus; set-up: method as in PMID 20521552; conditions: cited from earlier work
melting point [°C],Structure (SMILES),IC50 (LS174T cells) [µM],Selectivity index (SI) LS174T (LS174T cells),"IC50 (HCT116 cells; Homo sapiens, HCT-116, 72 h) [µM]",Selectivity index (SI) HCT116 (HCT116 cells),IC50 (HCT116 cells) [µM],IC50 (CCD841 CoN cells) [µM],IC50 (HT29 cells) [µM],Selectivity index (SI) HT29 (HT29 cells),Anticancer and antitumor activities towards MCF-7 cells [1],Anticancer and antitumor activities towards HCT116 cells [2],IC50 (HCT116 cells; listed as damnacanthal) [µM],Anticancer and antitumor activities towards HepG2 cells [3],Antimicrobial activity against C. lipolytica (C. lipolytica),IC50 (HCT116 cells; listed as morindone) [µM],Antimicrobial activity against oxacillin-resistant Staphylococcus aureus [4]
235 to 239,"COc1c(O)cc2c(c1O)C(=O)c1ccc(C)c(O)c1C2=O [1,3,5-trihydoxy-2-methoxy-6-methyl anthraquinone]",> 50,0.97,< 25,4.55,24.57 ± 0.07,> 50,> 50,0.03,–,–,–,–,–,–,–
–,"O=c1[nH]cc(F)c(=O)[nH]1 [5-Fluorouracil, 5-fluorouracil, reference compound]",4.16 ± 0.02,–,5 ± 0.04,–,–,–,0.2 ± 0.05,–,–,–,–,–,–,–,–
–,"COc1c(C=O)c(O)cc2c1C(=O)c1ccccc1C2=O [Damnacanthal (2), Damnacanthal]",> 50,0.28,–,951.60,0.74 ± 0.06,> 50,28.17 ± 0.08,24.85,Good anticancer and antitumor activities,Good anticancer and antitumor activities,< 25,Good anticancer and antitumor activities,–,–,–
156 to 158,"COc1c(CO)c(O)cc2c1C(=O)c1ccccc1C2=O [Damnacanthol (7), Damnacanthol]",> 50,0.59,< 25,–,18.47 ± 0.02,> 50,> 50,1.46,–,–,–,–,–,–,–
–,"COc1cccc2c1C(=O)c1c(O)c3c(c(O)c1C2=O)C[C@@](O)(C(=O)CO)C[C@@H]3O[C@H]1C[C@H](N)[C@H](O)[C@H](C)O1 [Doxorubicin hydrochloride, doxorubicin hydrochloride, reference compound]",2.27 ± 0.04,–,0.17 ± 0.04,–,–,–,0.3 ± 0.06,–,–,–,–,–,–,–,–
170 to 173,"COCc1c(O)cc2c(c1O)C(=O)c1ccccc1C2=O [Lucidin-ω-methylether (8), Lucidin-ω-methylether]",> 50,–,< 25,–,14.88 ± 0.01,> 50,> 50,–,–,–,–,–,–,–,–
–,"Cc1ccc2c(c1O)C(=O)c1ccc(O)c(O)c1C2=O [Morindone (4), Morindone]",20.45 ± 0.03,39.89,–,76.25,10.7 ± 0.04,> 50,19.2 ± 0.05,42.49,–,–,–,–,strong antimicrobial activity,< 25,strong antimicrobial activity
219 to 222,"O=Cc1c(O)cc2c(c1O)C(=O)c1ccccc1C2=O [Nordamnacanthal (1), Nordamnacanthal]",> 50,4.79,> 50,0.97,–,> 50,> 50,0.42,–,–,–,–,–,–,–
–,"Cc1c(O)cc2c(c1O)C(=O)c1ccccc1C2=O [Rubiadin (6), Rubiadin]",> 50,–,> 50,–,–,> 50,> 50,–,–,–,–,–,–,–,–
–,"Cc1ccc2c(c1O)C(=O)c1ccc(O)cc1C2=O [Sorendidiol (5), Sorendidiol]",> 50,–,> 50,7.10,–,> 50,27.17 ± 0.07,29.19,–,–,–,–,–,–,–
